Molecular target: 5-hydroxytryptamine receptor 1B (Rattus norvegicus, UniProt P28564)
Sequence (P28564 whole entry): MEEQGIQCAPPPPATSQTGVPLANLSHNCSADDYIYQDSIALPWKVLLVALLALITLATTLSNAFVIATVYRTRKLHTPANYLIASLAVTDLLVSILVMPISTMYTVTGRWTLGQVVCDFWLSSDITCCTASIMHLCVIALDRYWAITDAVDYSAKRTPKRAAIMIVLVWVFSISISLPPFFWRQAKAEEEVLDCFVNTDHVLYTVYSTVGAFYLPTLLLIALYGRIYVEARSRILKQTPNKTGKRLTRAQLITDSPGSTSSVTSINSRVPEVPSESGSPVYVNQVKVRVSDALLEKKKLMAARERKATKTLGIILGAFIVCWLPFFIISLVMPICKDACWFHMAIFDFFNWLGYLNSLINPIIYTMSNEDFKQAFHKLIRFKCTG

NCC(O)c1ccc(O)c(O)c1 (stereo not drawn) [Noradrenaline,(+)]
Ki: > 10000 nM

O=C(c1ccc(F)cc1)C1CCN(CCn2c(=O)[nH]c3ccccc3c2=O)CC1 [3-(2-{4-[(4-fluorophenyl)carbonyl]piperidin-1-yl}ethyl)-1,2,3,4-tetrahydroquinazoline-2,4-dione]
Ki: > 10000 nM

COc1cc2nc(N3CCN(C(=O)c4ccco4)CC3)nc(N)c2cc1OC [[3H]-Minipress]
Ki: 290 nM

Cc1ccc(N(CC2=NCCN2)c2cccc(O)c2)cc1 [SMR000059054]
Ki: 870 nM

FC(F)(F)c1cccc(N2CCNCC2)c1 [TFMPP]
Ki: 84 nM

CN1C[C@@H](NS(=O)(=O)N(C)C)C[C@@H]2c3cccc4c3c(cn4C)C[C@H]21 [MESULERGINE]
Ki: > 10000 nM

CN1CCN(c2nc3cc(C(F)(F)F)ccc3n3cccc23)CC1 [CAS_109028-10-6]
Ki: 32 nM

Clc1cccc(N2CCNCC2)c1 [mCPP]
Ki: 96 nM

CSc1ccc2c(c1)C(N1CCN(C)CC1)Cc1ccccc1S2 (stereo unspecified) [methanesulfonic acid;1-methyl-4-(3-methylsulfanyl-5,6-dihydrobenzo[b][1]benzothiepin-5-yl)piperazine]
Ki: 95 nM

O=C(CCCN1CCC2(CC1)C(=O)NCN2c1ccccc1)c1ccc(F)cc1 [8-[4-(4-fluorophenyl)-4-oxidanylidene-butyl]-1-phenyl-1,3,8-triazaspiro[4.5]decan-4-one]
Ki: > 10000 nM

CC[C@@H](CO)NC(=O)[C@@H]1C=C2c3cccc4c3c(cn4C)C[C@H]2N(C)C1
Ki: 386 nM

CN1C2CCC1CC(OC(=O)c1cc(Cl)cc(Cl)c1)C2 (stereo unspecified) [MDL 72222]
Ki: > 10000 nM

Clc1cccc(Cl)c1N=C1NCCN1 [2-(2,6-dichloroanilino)-2-imidazoline]
Ki: > 10000 nM

c1ccc2nc(N3CCNCC3)ccc2c1 [2-Piperazin-1-yl-quinoline (Quipazine)]
Ki: 249 nM

NCCc1c[nH]c2ccc(C(N)=O)cc12 [[3H]-5-carboxamidotryptamine]
Ki: 4 nM

CN1C2CCC1CC(OC(=O)c1c[nH]c3ccccc13)C2 (stereo unspecified)
Ki: > 10000 nM

From BindingDB's records for PubMed 1738111 (University of Texas, 1992)
